Experiments:
[1] = tested on: HT116 colon cancer cells; test: Eight-day colony formation assay, HT116; format: cell-based, human
Method: (§1) We sought to identify compounds that would inhibit the growth of cancer cells, but that also did so selectively. Inhibition of cancer cell growth is a highly sought after attribute of anticancer agents. This was assessed by measuring the ability of a compound to inhibit cell growth in eight-day colony formation assays, examining concentrations ranging from 0.017 to 40 μM. Breast, colon, lung and prostate cancer are four of the most common causes of cancer in the United States, are major causes of cancer cell death, and were examined.[64] Two cell lines for each cancer type were assessed: A549 (adenocarcinoma) and H226 (squamous carcinoma) for lung, MCF-7 (estrogen receptor [ER] positive) and MDA-MB-231 (ER negative) for breast, LNCaP (androgen receptor [AR] positive) and PC3-M (AR negative) for prostate, and HCT116 (wild type p53, mutated KRAS) and HT29 (p53 mutant) for colon.[65]
(§2) In considering effect on cancer cells, for each compound and each cell line tested we calculated the efficacy ratio, i.e., efficacy ratio = (percent of remaining cancer cell colonies)/(percent of remaining bone marrow colonies), at 8 days after treatment with 40 μM compound (S4 Fig). We considered those with an efficacy ratio below 0.5 as active and at least partially selective. The stringency of this is highlighted by considering the effect of 5FU on colon cancer, where it is frequently used clinically in proven curative settings, as well as proven life prolonging settings.[70, 71] […] Even at 5.7 μM, where 5FU is toxic to bone marrow, with hematopoietic colony formation at 38% of control, the efficacy ratio for HT29 cells has only dropped to 0.52. […] It can be seen that compounds segregate to protein sites. Specifically, of 10 compounds meeting this activity criteria (i.e., efficacy ratio <0.5), 3 were directed at the Dxr2 site, 3 at FolC2, 2 at FolC1, 1 at Dxr1 and 1 at TYLT.
(§3) Eight-day colony formation assays of cancer cells were performed as described by us.[87] Briefly, 0.5–1.0 × 10^3 cells were seeded into a 12 well plate, after 24 hours compound added and eight days later colonies (of 3 or more cells) were scored after trypan blue staining. Conditions were in replicates of N = 2. All compounds were stored under desiccated conditions in a sealed container at minus 20°C upon arrival. One day prior to use, they were placed into DMSO, stored at […] as stock solutions, thawed just prior to use, and not reused.

[2] = tested on: MCF-7 breast cancer cells; test: Eight-day colony formation assay, MCF-7; format: cell-based, human
Method: as §1, §2, §3

[3] = tested on: PC3-M prostate cancer cells; test: Eight-day colony formation assay, PC3-M; format: cell-based, human
Method: as §1, §2, §3

[4] = tested on: LNCaP prostate cancer cells; test: Eight-day colony formation assay, LNCaP; format: cell-based, human
Method: as §1, §2, §3

[5] = tested on: human melanoma M14 cells; test: Eight-day colony formation assay, M14; format: cell-based; conditions: for IC50: M14, eight-day assay, mean ± SEM
Method: (§4) We next evaluated the effect of Dxr2-017 on human melanoma M14 and SK-MEL-5 cell lines in eight-day assays (Fig 8A).
(§5) Fig 8. Dxr2-017 inhibits melanoma cell growth through induction of anoikis. (A) Inhibition of melanoma cell growth. Cells were treated with different concentrations of Dxr2-017 and formation of colonies at eight days depicted. Data are expressed as percent of untreated control and are the mean ± SEM (N=3 replicates) of a single experiment. (B) No effect on cycle progression. M14 and SK-MEL-5 cells were treated for 8 days with 20 and 50 nM Dxr2-017, respectively, and phase of cell cycle determined by flow cytometry. Data are the mean ± SEM (N=3). *denotes P-value ≤0.05. (C) Transition to floating cells. Cells were treated for three days with different Dxr2-017 concentrations. Depicted are representative light photomicrographs at 20X; scale bar is150 μm. Blue and green arrows denote adherent and floating cells, respectively. (D) Cleaved caspase 3 is induced in floating cells. Cells were treated for 3 days, cell lysate from only adherent cells, or from adherent and floating cells combined, was probed by Western blot for cleaved caspase 3. All experiments were repeated at separate times, yielding similar results.
as §3

[6] = tested on: human melanoma SK-MEL-5 cells; test: Eight-day colony formation assay, SK-MEL-5; format: cell-based
Method: as §4
as §5, with “Cells were treated for 3 days, cell lysate from only adherent cells, or from adherent and floating cells combined, was probed by Western blot for cleaved caspase 3. All experiments were repeated at separate times, yielding similar results.” left out
Eight-day colony formation assays of cancer cells were performed as described by us.[87] Briefly, 0.5–1.0 × 10^3 cells were seeded into a 12 well plate, after 24 hours compound added and eight days later colonies (of 3 or more cells) were scored after trypan blue staining. […]

[7] = tested on: human breast, prostate, colon and lung cancer cells; test: Eight-day colony formation assays, summary across the cancer cell line panel; format: cell-based
Method: as §1, §2, §3

[8] = tested on: SK-MEL-5 cells; test: Cell cycle analysis by flow cytometry, SK-MEL-5; format: cell-based, human; conditions: 50 nM, eight days
Method: as §5
A total of 1 × 10^4 M14 cells and 1 × 10^4 SK-MEL-5 cells were seeded into 10 cm culture dishes. […] Cells were analyzed by flow cytometry (FACSCalibur3 analyzer, BD Biosciences), and the percentage of cells within G0/G1, S, and G2/M phases were determined via analysis using Modfit LT 4.0.5.

[9] = tested on: SK-MEL-5 cells; test: Western blot for cleaved caspase 3, SK-MEL-5; format: cell-based, human; conditions: 3 days, up to 20 μM
Method: as §5
We then assessed whether Dxr2-017 was inducing apoptosis. […] These findings raised the possibility that Dxr2-017 was inducing anoikis, a process in which programmed cell death occurs upon cell detachment.[72, 73] […]

IC50 ([5]; Homo sapiens, M14, 192 h): 19 nM
IC50 [5]: 19.7 ± 7.4 nM
IC50 ([6]; Homo sapiens, 192 h, SK-MEL-5, eight-day assay, mean ± SEM): 51.7 ± 16.4 nM
Structure (SMILES): c1ccc2sc(-c3ccc(CNc4ccc5nnnn5n4)o3)nc2c1 [Dxr2-017]
efficacy ratio (cancer cell colonies to bone marrow colonies at 8 days) ([1]; 5.7 μM): 0.69
efficacy ratio (cancer cell colonies to bone marrow colonies at 8 days) ([1]; 40 μM): 0.08
efficacy ratio (cancer cell colonies to bone marrow colonies at 8 days) ([2]; 5.7 μM): 0.39
efficacy ratio (cancer cell colonies to bone marrow colonies at 8 days) ([2]; 40 μM): 0.02
efficacy ratio (cancer cell colonies to bone marrow colonies at 8 days) ([3]; 5.7 μM): 0.41
efficacy ratio (cancer cell colonies to bone marrow colonies at 8 days) ([3]; 40 μM): 0.00
efficacy ratio (cancer cell colonies to bone marrow colonies at 8 days) ([4]; 5.7 μM): 0.49
efficacy ratio (cancer cell colonies to bone marrow colonies at 8 days) ([4]; 40 μM): 0.05
fold efficacy versus bone marrow stem cells ([5]; M14 IC50 compared to 40 μM eight-day bone marrow treatment): over 2100 fold
fold efficacy versus bone marrow stem cells ([6]; SK-MEL-5 IC50 compared to 40 μM eight-day bone marrow treatment): > 750 fold
relative activity for a given compound, % (% of cells tested where ratio is <0.5) ([7]; 5.7 μM): 75%
mean efficacy ratio for cells where the efficacy ratio is below 0.5 ([7]; 5.7 μM, mean ± SEM): 0.25 ± 0.091
relative activity for a given compound, % (% of cells tested where ratio is <0.5) ([7]; 40 μM): 100%
mean efficacy ratio for cells/compounds where the efficacy ratio is below 0.5 ([7]; 40 μM, mean ± SEM): 0.03 ± 0.01
change in cell cycle parameters [8]: little-to-no change in cell cycle parameters
cleaved caspase 3, adherent cells only [9]: did not detect any induction of cleaved caspase 3
cleaved caspase 3, floating and adherent cells combined [9]: clear formation

— publication doi:10.1101/2024.05.17.594634, “Protein Structure Inspired Drug Discovery” (bioRxiv, 2024)
